{
  "source": "patent US20100160264A1",
  "about": "“CRYSTALLINE SOLID FORMS” (priority 2007, published 2010)",
  "key": {"[1]": {"experiment": "Stability after storing different crystalline forms of Tigecycline at 80° C. for 7 days (4-Epi-Tigecycline and total impurities)", "type": "physicochemical", "conditions": "for Stability in words (total impurities and 4-Epi-Tigecycline content): 7 days at 80° C.; for 4-Epi-Tigecycline 7 days at 80° C. / Total impurities 7 days at 80° C.: after storing 7 days at 80° C., in % (unit assumed); for 4-Epi-Tigecycline ambient conditions / Total impurities ambient conditions: before storage, depends on purity of the starting material", "text": "A suitable crystalline form of Tigecycline for formulating an anti-infective medicament first of all is required to be thermodynamic stable, in order to avoid formation of degradation products."}, "[2]": {"experiment": "Water content and hygroscopicity: open storage for 24 hours at 80% relative humidity", "type": "physicochemical", "conditions": "for water content 1 day at 80% rH: open storage 1 day at 80% rH; for water uptake 1 day at 80% rH / Hygroscopicity in words: open storage 24 hours at 80% relative humidity", "text": "Furthermore suitable crystalline forms of Tigecycline should be low hygroscopic, as water uptake may cause the formation of undesired byproducts like e.g. 4-Epi-Tigecycline."}, "[3]": {"conditions": "30 min", "experimental": "The water solubility determination of the different crystalline forms of Tigecycline was performed on a Perkin Elmer® Lambda 35 UV/VIS spectrometer. The software used was Perkin Elmer® UV WlnLab-5.1.\n200 mg of Tigecycline were stirred with 1 ml distilled water at room temperature for 30 minutes. The suspension was filtered through a 0.45 μm filter and 100 μl of the solution were transferred into a 1 L volumetric flask. After filling up to the check mark with distilled water the solution was measured at 347 nm."}, "[4]": {"conditions": "cited from earlier work"}},
  "data": [
    {"smiles": "CN(C)c1cc(NC(=O)CNC(C)(C)C)c(O)c2c1C[C@H]1C[C@H]3[C@H](N(C)C)C(O)=C(C(N)=O)C(=O)[C@@]3(O)C(O)=C1C2=O", "note": "[Form I, Tigecycline]", "values": [
      {"measurement": "Stability in words (total impurities and 4-Epi-Tigecycline content)", "setting": "[1]", "value": "tremendous increase"},
      {"measurement": "4-Epi-Tigecycline 7 days at 80° C.", "setting": "[1]; listed as I", "value": 2.15},
      {"measurement": "Total impurities 7 days at 80° C.", "setting": "[1]; listed as I", "value": 11.20},
      {"measurement": "4-Epi-Tigecycline ambient conditions", "setting": "[1]; listed as I", "value": 0.36, "unit": "%"},
      {"measurement": "Total impurities ambient conditions", "setting": "[1]; listed as I", "value": 0.75, "unit": "%"},
      {"measurement": "water content ambient conditions", "setting": "[2]; listed as I", "value": 2.01, "unit": "%"},
      {"measurement": "water content 1 day at 80% rH", "setting": "[2]; listed as I", "value": 5.01, "unit": "%"},
      {"measurement": "water uptake 1 day at 80% rH", "setting": "[2]; listed as I", "value": 3.00, "unit": "%"},
      {"measurement": "Solubility, Concentration", "setting": "[3]", "value": 185, "unit": "mg/mL"}
    ]},
    {"smiles": "CN(C)c1cc(NC(=O)CNC(C)(C)C)c(O)c2c1C[C@H]1C[C@H]3[C@H](N(C)C)C(O)=C(C(N)=O)C(=O)[C@@]3(O)C(O)=C1C2=O", "note": "[Form II, Tigecycline]", "values": [
      {"measurement": "Stability in words (total impurities and 4-Epi-Tigecycline content)", "setting": "[1]; listed as form II", "value": "tremendous increase"},
      {"measurement": "4-Epi-Tigecycline 7 days at 80° C.", "setting": "[1]; listed as II", "value": 10.83},
      {"measurement": "Total impurities 7 days at 80° C.", "setting": "[1]; listed as II", "value": 18.44},
      {"measurement": "4-Epi-Tigecycline ambient conditions", "setting": "[1]; listed as II", "value": 1.04, "unit": "%"},
      {"measurement": "Total impurities ambient conditions", "setting": "[1]; listed as II", "value": 1.6, "unit": "%"},
      {"measurement": "water content ambient conditions", "setting": "[2]; listed as II", "value": 2.93, "unit": "%"},
      {"measurement": "water content 1 day at 80% rH", "setting": "[2]; listed as II", "value": 10.04, "unit": "%"},
      {"measurement": "water uptake 1 day at 80% rH", "setting": "[2]; listed as II", "value": 7.11, "unit": "%"},
      {"measurement": "Solubility, Concentration", "setting": "[3]", "value": 177, "unit": "mg/mL"}
    ]},
    {"smiles": "CN(C)c1cc(NC(=O)CNC(C)(C)C)c(O)c2c1C[C@H]1C[C@H]3[C@H](N(C)C)C(O)=C(C(N)=O)C(=O)[C@@]3(O)C(O)=C1C2=O", "note": "[Form III, Tigecycline]", "values": [
      {"measurement": "4-Epi-Tigecycline 7 days at 80° C.", "setting": "[1]; listed as III", "value": 2.18},
      {"measurement": "Total impurities 7 days at 80° C.", "setting": "[1]; listed as III", "value": 4.46},
      {"measurement": "4-Epi-Tigecycline ambient conditions", "setting": "[1]; listed as III", "value": 0.16, "unit": "%"},
      {"measurement": "Total impurities ambient conditions", "setting": "[1]; listed as III", "value": 0.16, "unit": "%"},
      {"measurement": "water content ambient conditions", "setting": "[2]; listed as III", "value": 0.69, "unit": "%"},
      {"measurement": "water content 1 day at 80% rH", "setting": "[2]; listed as III", "value": 8.01, "unit": "%"},
      {"measurement": "water uptake 1 day at 80% rH", "setting": "[2]", "value": 7.32, "unit": "%"},
      {"measurement": "water uptake 1 day at 80% rH", "setting": "[2]; listed as III", "value": 7.32, "unit": "%"},
      {"measurement": "Solubility, Concentration", "setting": "[3]", "value": 174, "unit": "mg/mL"}
    ]},
    {"smiles": "CN(C)c1cc(NC(=O)CNC(C)(C)C)c(O)c2c1C[C@H]1C[C@H]3[C@H](N(C)C)C(O)=C(C(N)=O)C(=O)[C@@]3(O)C(O)=C1C2=O", "note": "[Form IV, Tigecycline]", "values": [
      {"measurement": "4-Epi-Tigecycline 7 days at 80° C.", "setting": "[1]; listed as IV", "value": 0.38},
      {"measurement": "Total impurities 7 days at 80° C.", "setting": "[1]; listed as IV", "value": 0.87},
      {"measurement": "4-Epi-Tigecycline ambient conditions", "setting": "[1]; listed as IV", "value": 0.23, "unit": "%"},
      {"measurement": "Total impurities ambient conditions", "setting": "[1]; listed as IV", "value": 0.4, "unit": "%"},
      {"measurement": "water content ambient conditions", "setting": "[2]; listed as IV", "value": 2.90, "unit": "%"},
      {"measurement": "water content 1 day at 80% rH", "setting": "[2]; listed as IV", "value": 3.33, "unit": "%"},
      {"measurement": "water uptake 1 day at 80% rH", "setting": "[2]; listed as IV", "value": 0.43, "unit": "%"},
      {"measurement": "Solubility, Concentration", "setting": "[3]", "value": 183, "unit": "mg/mL"}
    ]},
    {"smiles": "CN(C)c1cc(NC(=O)CNC(C)(C)C)c(O)c2c1C[C@H]1C[C@H]3[C@H](N(C)C)C(O)=C(C(N)=O)C(=O)[C@@]3(O)C(O)=C1C2=O", "note": "[Form V, Tigecycline]", "values": [
      {"measurement": "4-Epi-Tigecycline 7 days at 80° C.", "setting": "[1]; listed as V", "value": 0.18},
      {"measurement": "Total impurities 7 days at 80° C.", "setting": "[1]; listed as V", "value": 0.37},
      {"measurement": "4-Epi-Tigecycline ambient conditions", "setting": "[1]; listed as V", "value": "< 0.05", "unit": "%"},
      {"measurement": "Total impurities ambient conditions", "setting": "[1]; listed as V", "value": 0.22, "unit": "%"},
      {"measurement": "water content ambient conditions", "setting": "[2]; listed as V", "value": 0.19, "unit": "%"},
      {"measurement": "water content 1 day at 80% rH", "setting": "[2]; listed as V", "value": 1.88, "unit": "%"},
      {"measurement": "water uptake 1 day at 80% rH", "setting": "[2]; listed as V", "value": 1.69, "unit": "%"},
      {"measurement": "Solubility, Concentration", "setting": "[3]", "value": 134, "unit": "mg/mL"}
    ]},
    {"smiles": "CN(C)c1cc(NC(=O)CNC(C)(C)C)c(O)c2c1C[C@H]1C[C@H]3[C@H](N(C)C)C(O)=C(C(N)=O)C(=O)[C@@]3(O)C(O)=C1C2=O", "note": "[Form VI, Tigecycline]", "values": [
      {"measurement": "Stability in words (total impurities and 4-Epi-Tigecycline content)", "setting": "[1]; listed as VI", "value": "adequate stability data"},
      {"measurement": "4-Epi-Tigecycline 7 days at 80° C.", "setting": "[1]; listed as VI", "value": 0.38},
      {"measurement": "Total impurities 7 days at 80° C.", "setting": "[1]; listed as VI", "value": 0.91},
      {"measurement": "4-Epi-Tigecycline ambient conditions", "setting": "[1]; listed as VI", "value": 0.17, "unit": "%"},
      {"measurement": "Total impurities ambient conditions", "setting": "[1]; listed as VI", "value": 0.24, "unit": "%"},
      {"measurement": "water content ambient conditions", "setting": "[2]; listed as VI", "value": 0.18, "unit": "%"},
      {"measurement": "water content 1 day at 80% rH", "setting": "[2]; listed as VI", "value": 0.25, "unit": "%"},
      {"measurement": "Hygroscopicity in words", "setting": "[2]", "value": "low hygroscopicity"},
      {"measurement": "water uptake 1 day at 80% rH", "setting": "[2]; listed as VI", "value": 0.07, "unit": "%"},
      {"measurement": "Solubility, Concentration", "setting": "[3]", "value": 76, "unit": "mg/mL"}
    ]},
    {"smiles": "CN(C)c1cc(NC(=O)CNC(C)(C)C)c(O)c2c1C[C@H]1C[C@H]3[C@H](N(C)C)C(O)=C(C(N)=O)C(=O)[C@@]3(O)C(O)=C1C2=O", "note": "[Form VIII, Tigecycline]", "values": [
      {"measurement": "Stability in words (total impurities and 4-Epi-Tigecycline content)", "setting": "[1]; listed as VIII", "value": "adequate stability data"},
      {"measurement": "Stability in words (total impurities and 4-Epi-Tigecycline content)", "setting": "[1]; listed as form VIII", "value": "adequate stability data"},
      {"measurement": "4-Epi-Tigecycline 7 days at 80° C.", "setting": "[1]; listed as VIII", "value": 0.70},
      {"measurement": "Total impurities 7 days at 80° C.", "setting": "[1]; listed as VIII", "value": 2.13},
      {"measurement": "4-Epi-Tigecycline ambient conditions", "setting": "[1]; listed as VIII", "value": 0.15, "unit": "%"},
      {"measurement": "Total impurities ambient conditions", "setting": "[1]; listed as VIII", "value": 0.43, "unit": "%"},
      {"measurement": "water content ambient conditions", "setting": "[2]; listed as VIII", "value": 0.10, "unit": "%"},
      {"measurement": "water content 1 day at 80% rH", "setting": "[2]; listed as VIII", "value": 0.21, "unit": "%"},
      {"measurement": "water uptake 1 day at 80% rH", "setting": "[2]; listed as VIII", "value": 0.11, "unit": "%"},
      {"measurement": "Hygroscopicity in words", "setting": "[2]; listed as form VIII", "value": "no water uptake at all"},
      {"measurement": "water uptake 1 day at 80% rH", "setting": "[2]; listed as form VIII", "value": 0.11, "unit": "%"},
      {"measurement": "Solubility, Concentration", "setting": "[3]", "value": 141, "unit": "mg/mL"}
    ]},
    {"smiles": "CN(C)c1cc(NC(=O)CNC(C)(C)C)c(O)c2c1C[C@H]1C[C@H]3[C@H](N(C)C)C(O)=C(C(N)=O)C(=O)[C@@]3(O)C(O)=C1C2=O", "note": "[Tigecycline, (4S,4aS,5aR,12aS)-4,7-Bis(dimethylamino)-9-[[2-[(1,1-dimethylethyl)amino]acetyl]amino]-1,4,4a,5,5a,6,11,12a-octahydro-3,10,12,12a-tetrahydroxy-1,11-dioxo-2-naphthacene carboxamide]", "values": [
      {"measurement": "oral bioavailability", "setting": "[4]", "value": "very limited"}
    ]}
  ]
}
